What was measured:
[1] = system: balloon-injured carotid arteries; details: delivered pre- and post-operatively; effect relatively modest; cited from earlier work
PCNA expression = details: EJV pretreated with 80 μM UO126; 24 hours and 4 days post-grafting; relative to DMSO-pretreated EJVs
Protocol: (§1) Carotid artery bypass using reversed autologous external jugular vein (EJV) was performed on 29 purpose-bred mongrel dogs. Following skin incision, the EJV was exposed with a “no-touch” technique, and the side branches were clipped and divided. The dogs received heparin systemically (100 U/kg) and the ipsilateral common carotid artery was dissected free of the surrounding tissue. The EJV was ligated and excised. The lumen of the EJV was flushed with plasmalyte solution without distending the vein. A segment of the excised vein was removed and labeled (“control 1”). The EJV was reversed and grafted to the common carotid artery in an end-to-side fashion with 7-0 polypropylene suture, and the carotid artery was ligated and divided. See Saunders et al., J Thorac Cardiovasc Surg. 2004; 127:1276-1284.
(§2) Each EJV was grafted to a carotid artery. Autologous femoral vein was excised but not treated or grafted.

medial cell apoptosis = details: EJV pretreated with 80 μM UO126; 1 day and 4 days post-anastomosis
Protocol: as §1, §2

ERK-1/2 = details: excised EJV immersed 20 minutes in 80 μmmoles/L UO126 before grafting; 3 hours post-grafting; relative to DMSO-pretreated EJVs
Protocol: as §1, §2

ERK-1/2 activation = details: cited from earlier work
[2] = system: myeloperoxidase-positive (MPO) cells; details: graft immersed in UO126 (80 μM/L) prior to grafting; 24 hours and 4 days post-operatively
Protocol: as §1
(§3) Inflammation is a key component of a vessel's response to injury.
(§4) This experiment, which also used the canine model described in Example 1, investigated the levels of CRP and MPO cells in arterialized vein grafts immersed in a solution of UO126 (80 μM/L) (solubilized with DMSO and diluted in PBS) prior to grafting (i.e., pretreated grafts), arterialized vein grafts that were not pretreated, and contralateral ungrafted, un-pretreated external jugular veins.

C reactive protein (CRP) = details: graft immersed in UO126 (80 μM/L) prior to grafting; 24 hours post-operatively
Protocol: as §1, §3, §4

[3] = system: arterialized vein graft wall; details: EJV immersed 20 minutes in 80 μmoles/L UO126 before grafting; AVG harvested at 28 days; 1% cholesterol chow; DMSO controls 358.2+/−190.3; p=0.012
Protocol: The experimental procedure followed in the canine model described in Examples 1, 2, and 3 was applied to white New Zealand rabbits fed a 1% cholesterol chow. Prior to grafting, the excised autologous EJVs were fully immersed for 20 minutes at room temperature in about 5 ml of a solution containing 80 μmoles/L of UO126 (solubilized with DMSO and diluted in PBS) or vehicle (DMSO, 0.8%) alone in PBS. Each EJV was grafted to a carotid artery. Autologous femoral vein was excised but not treated or grafted. The veins were fixed in formaldehyde, and sections stained with hematoxylin/eosin were used for the following analysis.

COc1cccc(-c2cc(=O)c3ccccc3o2)c1N [PD98059, 2-(2′-amino-3′-methoxyphenyl) oxanaphthalen-4-one]
ERK activation [1]: inhibit
medial cell proliferation [1]: inhibit

N#CC(=C(N)Sc1ccccc1N)C(C#N)=C(N)Sc1ccccc1N [UO126, 1,4-diamino-2,3-dicyano-1,4-bis[2-aminophenylthio]butadiene]
PCNA expression (PCNA expression): markedly decreased
medial cell apoptosis (TUNEL) (medial cell apoptosis): marked and sustained (up to 4 days) induction
ERK-1/2 activation (ratio of phosphorylated to total ERK-1/2) (ERK-1/2): significantly reduced
potency as inhibitor of ERK-1/2 activation compared with PD098059 (ERK-1/2 activation): more potent
levels of MPO cells associated with arterialized vein grafts [2]: significantly downregulated
upregulation of CRP in arterialized vein grafts (C reactive protein (CRP)): does not affect
vein wall thickness (intima+media) to luminal circumference ratio (mean value+/−SD) [3]: 288.8+/−109.5
